Reference: ChEMBL document CHEMBL5247653, “Discovery of Clinical Candidate ACT-777991, a Potent CXCR3 Antagonist for Antigen-Driven and Inflammatory Pathologies” (J Med Chem, 2023)
pIC50: −log10 of the molar value.

How the values were obtained:
[1] = target: T1, C-X-C chemokine receptor type 3 (Homo sapiens, UniProt P49682); test: Antagonist activity at CXCR3 (unknown origin) in human T cells in venous blood assessed as receptor internalization incubated for 30 mins in presence of CXCL10 by flow cytometric analysis; type: cell-based, T cell
T1 sequence (P49682 whole entry): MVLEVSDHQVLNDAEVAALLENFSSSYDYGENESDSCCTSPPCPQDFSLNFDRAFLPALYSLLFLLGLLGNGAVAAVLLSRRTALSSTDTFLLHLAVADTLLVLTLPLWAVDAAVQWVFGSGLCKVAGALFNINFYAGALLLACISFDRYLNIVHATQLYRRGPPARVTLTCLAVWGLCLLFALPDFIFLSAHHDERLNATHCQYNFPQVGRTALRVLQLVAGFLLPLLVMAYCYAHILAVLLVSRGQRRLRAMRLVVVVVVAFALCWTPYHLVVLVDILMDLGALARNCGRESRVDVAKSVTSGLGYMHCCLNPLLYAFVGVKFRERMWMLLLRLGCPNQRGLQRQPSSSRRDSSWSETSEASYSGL

[2] = Metabolic stability in human liver microsomes assessed as intrinsic clearance at 1 uM and measured upto 15 mins in presence of NADPH regenerating system by LC-MS/MS analysis; type: ADME, Microsome; details: read-out: CLH
[3] = target: Voltage-gated inwardly rectifying potassium channel KCNH2 (Homo sapiens, UniProt Q12809); test: Inhibition of human ERG stably expressed in CHO cells at -80 mV holding voltage by automated QPatch electrophysiological assay; type: toxicity, cell-based
[4] = Lipophilicity, log D of compound; type: physicochemical; details: octanol/water
[5] = target: CYP3A4 (Homo sapiens, UniProt P08684); test: […] recombinant human CYP3A4 mediated drug metabolism in human liver microsomes assessed as intrinsic clearance at 1 uM incubated for 45 mins in presence of NADPH regenerating system by LC-MS/MS analysis; type: ADME, Microsome; details: read-out: CLH
[6] = target: CYP2D6 (Homo sapiens, UniProt P10635); test: (§1) […] recombinant human CYP2D6 mediated drug metabolism in human liver microsomes assessed as intrinsic clearance at 1 uM incubated for 45 mins in presence of NADPH regenerating system by LC-MS/MS analysis; type: ADME, Microsome; details: recombinant human CYP2D6, read-out: CLH
[7] = Drug excretion in urine of Wistar rat assessed as unchanged drug at 3 mg/kg, iv; type: ADME, organism-based; details: read-out: Drug excretion
[8] = Protein binding in rat plasma assessed as fraction unbound at 1 uM incubated for 6 hrs by rapid equilibrium dialysis based LC-MS/MS analysis; type: ADME, cell-free
[9] = Total clearance in Wistar rat plasma at 0.5 mg/kg, iv; type: ADME, organism-based
[10] = Metabolic stability in dog liver microsomes assessed as intrinsic clearance at 1 uM and measured upto 15 mins in presence of NADPH regenerating system by LC-MS/MS analysis; type: ADME, Canis lupus familiaris, Microsome; details: read-out: CLH
[11] = Metabolic stability in rat liver microsomes assessed as intrinsic clearance at 1 uM and measured upto 15 mins in presence of NADPH regenerating system by LC-MS/MS analysis; type: ADME, Microsome; details: read-out: CLH
[12] = Protein binding in human plasma assessed as fraction unbound at 1 uM incubated for 6 hrs by rapid equilibrium dialysis based LC-MS/MS analysis; type: ADME, cell-free
[13] = Metabolic stability in human hepatocytes assessed as intrinsic clearance per 10^6 cells at 1 uM by LC-MS/MS analysis; type: ADME, cell-based, Hepatocyte
[14] = Metabolic stability in dog hepatocytes assessed as intrinsic clearance per 10^6 cells at 1 uM by LC-MS/MS analysis; type: ADME, cell-based, Canis lupus familiaris, Hepatocyte
[15] = Total clearance in Beagle dog plasma at 1 mg/kg, iv; type: ADME, organism-based, Canis lupus familiaris
[16] = Metabolic stability in rat hepatocytes assessed as intrinsic clearance per 10^6 cells at 1 uM by LC-MS/MS analysis; type: ADME, cell-based, Hepatocyte
[17] = Unbound clearance in Beagle dog plasma at 1 mg/kg, iv; type: ADME, organism-based, Canis lupus familiaris; details: in vivo
[18] = Protein binding in dog plasma assessed as fraction unbound at 1 uM incubated for 6 hrs by rapid equilibrium dialysis based LC-MS/MS analysis; type: ADME, cell-free, Canis lupus familiaris
[19] = Unbound clearance in Wistar rat plasma at 0.5 mg/kg, iv; type: ADME, organism-based; details: in vivo
[20] = Clearance in Wistar rat at 2 mg/kg,po; type: ADME, organism-based; details: in vivo
[21] = Oral bioavailability in Wistar rat at 2 mg/kg; type: ADME, organism-based; details: in vivo
[22] = Oral bioavailability in Beagle dog at 2 mg/kg; type: ADME, organism-based, Canis lupus familiaris; details: in vivo
[23] = Drug excretion in urine of Wistar rat assessed as unchanged drug at 0.5 mg/kg, iv; type: ADME, organism-based; details: read-out: Drug excretion
[24] = target: Cytochrome P450 2D6 (Homo sapiens, UniProt P10635); test: as §1; type: ADME, Microsome; details: microsomes, 0.75 h, 1 µM
Cytochrome P450 2D6, sequence (P10635 whole entry): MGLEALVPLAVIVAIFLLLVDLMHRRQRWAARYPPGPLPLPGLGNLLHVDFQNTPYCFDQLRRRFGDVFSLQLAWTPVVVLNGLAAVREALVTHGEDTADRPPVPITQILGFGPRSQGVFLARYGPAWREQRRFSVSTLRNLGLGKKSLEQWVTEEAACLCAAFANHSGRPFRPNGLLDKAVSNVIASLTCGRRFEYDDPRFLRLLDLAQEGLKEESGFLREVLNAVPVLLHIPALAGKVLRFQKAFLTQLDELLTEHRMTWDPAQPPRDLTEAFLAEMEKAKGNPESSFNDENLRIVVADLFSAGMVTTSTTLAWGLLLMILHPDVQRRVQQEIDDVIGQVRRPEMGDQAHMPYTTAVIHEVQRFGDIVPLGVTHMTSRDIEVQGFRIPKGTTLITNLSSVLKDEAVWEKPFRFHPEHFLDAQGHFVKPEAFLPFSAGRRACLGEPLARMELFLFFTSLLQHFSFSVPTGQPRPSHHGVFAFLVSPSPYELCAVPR

Voltage-gated inwardly rectifying potassium channel KCNH2, sequence (Q12809 whole entry): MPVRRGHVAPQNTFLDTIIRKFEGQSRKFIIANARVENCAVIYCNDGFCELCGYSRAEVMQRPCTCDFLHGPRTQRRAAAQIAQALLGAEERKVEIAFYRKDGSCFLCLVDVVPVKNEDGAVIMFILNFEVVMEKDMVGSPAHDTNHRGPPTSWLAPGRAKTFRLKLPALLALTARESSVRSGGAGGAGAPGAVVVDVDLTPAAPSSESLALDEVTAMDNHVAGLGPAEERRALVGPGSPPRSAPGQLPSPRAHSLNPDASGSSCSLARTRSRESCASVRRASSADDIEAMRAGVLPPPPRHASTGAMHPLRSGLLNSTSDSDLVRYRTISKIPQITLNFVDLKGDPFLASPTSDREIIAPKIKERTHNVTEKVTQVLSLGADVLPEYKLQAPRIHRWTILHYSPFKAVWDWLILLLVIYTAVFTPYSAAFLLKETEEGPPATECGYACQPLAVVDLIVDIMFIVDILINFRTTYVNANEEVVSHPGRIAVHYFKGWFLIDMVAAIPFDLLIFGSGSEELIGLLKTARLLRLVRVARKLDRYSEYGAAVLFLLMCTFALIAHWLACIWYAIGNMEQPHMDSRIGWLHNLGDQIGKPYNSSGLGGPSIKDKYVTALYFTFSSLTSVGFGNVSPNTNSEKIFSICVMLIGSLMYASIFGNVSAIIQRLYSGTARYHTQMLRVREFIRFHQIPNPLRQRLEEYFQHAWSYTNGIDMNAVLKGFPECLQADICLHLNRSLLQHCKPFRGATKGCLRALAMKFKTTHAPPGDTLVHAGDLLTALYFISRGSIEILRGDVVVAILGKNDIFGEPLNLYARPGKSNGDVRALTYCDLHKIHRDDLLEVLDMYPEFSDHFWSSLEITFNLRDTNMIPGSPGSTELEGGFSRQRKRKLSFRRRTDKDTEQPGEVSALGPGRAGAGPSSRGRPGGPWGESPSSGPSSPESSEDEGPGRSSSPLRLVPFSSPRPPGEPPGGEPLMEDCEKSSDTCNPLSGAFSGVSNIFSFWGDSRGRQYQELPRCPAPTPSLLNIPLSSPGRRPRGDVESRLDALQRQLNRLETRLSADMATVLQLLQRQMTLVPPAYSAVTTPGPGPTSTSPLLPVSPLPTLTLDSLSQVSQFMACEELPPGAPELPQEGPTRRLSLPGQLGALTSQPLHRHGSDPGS
CYP3A4, sequence (P08684 whole entry): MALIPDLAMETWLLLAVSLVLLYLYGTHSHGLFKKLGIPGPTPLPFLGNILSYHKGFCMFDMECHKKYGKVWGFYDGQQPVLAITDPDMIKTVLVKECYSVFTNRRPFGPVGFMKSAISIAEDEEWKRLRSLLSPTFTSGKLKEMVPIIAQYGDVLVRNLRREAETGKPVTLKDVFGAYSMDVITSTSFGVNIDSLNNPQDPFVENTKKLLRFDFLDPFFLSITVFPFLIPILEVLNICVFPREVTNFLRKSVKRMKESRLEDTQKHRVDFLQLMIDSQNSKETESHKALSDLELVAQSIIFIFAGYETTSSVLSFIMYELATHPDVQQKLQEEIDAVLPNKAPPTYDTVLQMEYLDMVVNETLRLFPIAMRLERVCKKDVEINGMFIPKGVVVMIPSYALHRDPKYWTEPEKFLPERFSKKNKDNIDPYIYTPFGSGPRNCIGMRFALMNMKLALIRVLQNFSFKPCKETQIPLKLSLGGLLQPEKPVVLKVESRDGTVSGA
CYP2D6, sequence (P10635 whole entry): as the sequence (P10635 whole entry) above

SMILES | pIC50 [1] | microsomal CLint at 1 µM [2] [µL/min/mg] | pIC50 [3] | other results
CC(C)c1ncn(CC(=O)N2CCN(c3sc(C(F)(F)F)nc3-c3cnc(C(F)(F)F)nc3)C[C@H]2CO)n1 | 6.65 | 33 | 4.54 | microsomal CLint at 1 µM [5]: 1.2 µL/min/mg; microsomal CLint at 1 µM [6]: 0.13 µL/min/mg
C[C@@H]1CN(c2sc(C(F)(F)F)nc2-c2cnc(C(F)(F)F)nc2)CCN1C(=O)Cn1cnc(C(N)=O)n1 | 5.67 | – | < 4.22 | –
C[C@@H]1CN(c2sc(C(F)(F)F)nc2-c2cnc(C(F)(F)F)nc2)CCN1C(=O)Cn1cnc(C(F)(F)F)n1 | 6.72 | – | 5.41 | –
CCc1ccn(CC(=O)N2CCN(c3sc(C(F)(F)F)nc3-c3cnc(C(F)(F)F)nc3)C[C@H]2CCO)n1 | 7.60 | 112 | 5.54 | –
CC(C)c1ncn(CC(=O)N2CCN(c3sc(C(F)(F)F)nc3-c3cnc(C(F)(F)F)nc3)C[C@H]2CCO)n1 | 7.20 | 22 | 5.24 | –
Cc1ncn(CC(=O)N2CCN(c3sc(C(F)(F)F)nc3-c3cnc(C(F)(F)F)nc3)C[C@H]2CO)n1 | 6.78 | < 10 | < 4.22 | –
CCc1ncn(CC(=O)N2CCN(c3sc(C(F)(F)F)nc3-c3cnc(C(F)(F)F)nc3)C[C@@H]2CCO)n1 | 6.58 | 17 | 4.57 | –
Cc1ccn(CC(=O)N2CCN(c3sc(C(F)(F)F)nc3-c3cnc(C(F)(F)F)nc3)C[C@@H]2CCO)n1 | 6.84 | 23 | 4.92 | microsomal CLint at 1 µM [5]: 0.56 µL/min/mg; microsomal CLint at 1 µM [6]: 0.37 µL/min/mg
CC(C)c1ncn(CC(=O)N2CCN(c3sc(C(F)(F)F)nc3-c3cnc(C(F)(F)F)nc3)C[C@@H]2CCO)n1 | 6.78 | 22 | 4.72 | microsomal CLint at 1 µM [5]: 1.9 µL/min/mg; microsomal CLint at 1 µM [6]: 0.28 µL/min/mg
CC(C)c1ncn(CC(=O)N2CCN(c3sc(C(F)(F)F)nc3-c3cnc(C(F)(F)F)nc3)C[C@H]2C)n1 | 6.89 | – | 5.15 | CL/F [20]: 6.5 mL/min/kg; bioavailability [21]: > 100%; bioavailability [22]: ≥ 100%
CCc1ncn(CC(=O)N2CCN(c3sc(C(F)(F)F)nc3-c3cnc(C(F)(F)F)nc3)C[C@H]2CCO)n1 | 7.35 | < 10 | 5.01 | microsomal CLint at 1 µM [5]: 0.33 µL/min/mg; logD [4]: 2.8; fraction unbound at 6 h, 1 µM [8]: 0.045; clearance [9]: 14 mL/min/kg; microsomal CLint at 1 µM [10]: < 10 µL/min/mg; microsomal CLint at 1 µM [11]: 13 µL/min/mg; fraction unbound at 6 h, 1 µM [12]: 0.15; CLH [13]: < 2 µL/min/mg; CLH [14]: < 2 µL/min/mg; clearance [15]: 19 mL/min/kg; CLH [16]: 3.2 µL/min/mg; CL free [17]: 64 mL/min/kg; fraction unbound at 6 h, 1 µM [18]: 0.3; CL free [19]: 311 mL/min/kg; dose excreted [23]: 37%; CLH [24]: 0.09 µL/min/mg
CCc1nncn1CC(=O)N1CCN(c2sc(C(F)(F)F)nc2-c2cnc(C(F)(F)F)nc2)C[C@H]1C | 5.92 | – | < 4.22 | logD [4]: 2.3
Cc1ncnn1CC(=O)N1CCN(c2sc(C(F)(F)F)nc2-c2cnc(C(F)(F)F)nc2)C[C@H]1C | 6.32 | – | 4.80 | –
CCc1nc(C)nn1CC(=O)N1CCN(c2sc(C(F)(F)F)nc2-c2cnc(C(F)(F)F)nc2)C[C@H]1C | 6.17 | – | 4.92 | –
Cc1ncn(CC(=O)N2CCN(c3sc(C(F)(F)F)nc3-c3cnc(C(F)(F)F)nc3)C[C@@H]2CCO)n1 | 6.19 | < 10 | < 4.22 | –
O=C(Cn1cnc(C2CC2)n1)N1CCN(c2sc(C(F)(F)F)nc2-c2cnc(C(F)(F)F)nc2)C[C@H]1CO | 6.85 | < 10 | 4.51 | –

Continued by rising pIC50 [1], values first:

pIC50 [1] | microsomal CLint at 1 µM [2] [µL/min/mg] | SMILES | pIC50 [3] | other results
5.88 | – | C[C@@H]1CN(c2sc(C(F)(F)F)nc2-c2cnc(C(F)(F)F)nc2)CCN1C(=O)Cn1cnc(C#N)n1 | 5.59 | –
5.92 | – | CCc1ncnn1CC(=O)N1CCN(c2sc(C(F)(F)F)nc2-c2cnc(C(F)(F)F)nc2)C[C@H]1C | 4.89 | logD [4]: 2.8
6.29 | – | C[C@@H]1CN(c2sc(C(F)(F)F)nc2-c2cnc(C(F)(F)F)nc2)CCN1C(=O)Cn1cnc(CO)n1 | < 4.22 | –
6.32 | – | CCc1nc(C)n(CC(=O)N2CCN(c3sc(C(F)(F)F)nc3-c3cnc(C(F)(F)F)nc3)C[C@H]2C)n1 | 5.06 | –
6.36 | – | COCc1ncn(CC(=O)N2CCN(c3sc(C(F)(F)F)nc3-c3cnc(C(F)(F)F)nc3)C[C@H]2C)n1 | 4.74 | –
6.45 | – | CC(O)c1ncn(CC(=O)N2CCN(c3sc(C(F)(F)F)nc3-c3cnc(C(F)(F)F)nc3)C[C@H]2C)n1 (stereo partly drawn) | < 4.22 | –
6.56 | – | Cc1ncn(CC(=O)N2CCN(c3sc(C(F)(F)F)nc3-c3cnc(C(F)(F)F)nc3)C[C@@H]2CO)n1 | < 4.22 | –
6.62 | – | C[C@@H]1CN(c2sc(C(F)(F)F)nc2-c2cnc(C(F)(F)F)nc2)CCN1C(=O)Cn1cnc(C(C)(C)C)n1 | 5.12 | –
6.68 | < 10 | CCc1ncn(CC(=O)N2CCN(c3sc(C(F)(F)F)nc3-c3cnc(C(F)(F)F)nc3)C[C@H]2CO)n1 | 4.28 | logD [4]: 2.6
6.79 | 27 | CC(C)c1ncn(CC(=O)N2CCN(c3sc(C(F)(F)F)nc3-c3cnc(C(F)(F)F)nc3)C[C@@H]2CO)n1 | 4.77 | –
6.84 | – | Cc1ncn(CC(=O)N2CCN(c3sc(C(F)(F)F)nc3-c3cnc(C(F)(F)F)nc3)C[C@H]2C)n1 | 4.77 | logD [4]: 2.7
6.93 | – | CCc1ncn(CC(=O)N2CCN(c3sc(C(F)(F)F)nc3-c3cnc(C(F)(F)F)nc3)C[C@H]2C)n1 | 4.92 | –
7.09 | < 10 | CCc1ncn(CC(=O)N2CCN(c3sc(C(F)(F)F)nc3-c3cnc(C(F)(F)F)nc3)C[C@@H]2CO)n1 | < 4.22 | microsomal CLint at 1 µM [5]: 0.27 µL/min/mg; microsomal CLint at 1 µM [6]: 0.13 µL/min/mg
7.13 | < 10 | Cc1ccn(CC(=O)N2CCN(c3sc(C(F)(F)F)nc3-c3cnc(C(F)(F)F)nc3)C[C@@H]2CO)n1 | 4.68 | dose excreted [7]: 1%; microsomal CLint at 1 µM [5]: 1.18 µL/min/mg; logD [4]: 3; fraction unbound at 6 h, 1 µM [8]: 0.01; clearance [9]: 7.1 mL/min/kg; microsomal CLint at 1 µM [10]: 16 µL/min/mg; microsomal CLint at 1 µM [11]: 13 µL/min/mg; fraction unbound at 6 h, 1 µM [12]: 0.11; CLH [13]: < 2 µL/min/mg; CLH [14]: 2.4 µL/min/mg; clearance [15]: 22 mL/min/kg; CLH [16]: 2.8 µL/min/mg; CL free [17]: 100 mL/min/kg; fraction unbound at 6 h, 1 µM [18]: 0.22; CL free [19]: 710 mL/min/kg; microsomal CLint at 1 µM [6]: 0.41 µL/min/mg
7.23 | 12 | O=C(Cn1cnc(C2CC2)n1)N1CCN(c2sc(C(F)(F)F)nc2-c2cnc(C(F)(F)F)nc2)C[C@H]1CCO | 5.14 | –
7.25 | – | Cc1ccn(CC(=O)N2CCN(c3sc(C(F)(F)F)nc3-c3cnc(C(F)(F)F)nc3)C[C@H]2C)n1 | 5.29 | logD [4]: 3.4
7.27 | < 10 | Cc1ccn(CC(=O)N2CCN(c3sc(C(F)(F)F)nc3-c3cnc(C(F)(F)F)nc3)C[C@H]2CO)n1 | 4.89 | microsomal CLint at 1 µM [5]: 0.72 µL/min/mg; microsomal CLint at 1 µM [6]: 0.41 µL/min/mg
7.47 | 81 | CCc1ccn(CC(=O)N2CCN(c3sc(C(F)(F)F)nc3-c3cnc(C(F)(F)F)nc3)C[C@H]2CO)n1 | 5.07 | –
7.52 | 19 | Cc1ccn(CC(=O)N2CCN(c3sc(C(F)(F)F)nc3-c3cnc(C(F)(F)F)nc3)C[C@H]2CCO)n1 | 5.30 | –
